From patent US9266904B2, “6-bridged heteroaryldihydropyrimidines for the treatment and prophylaxis of hepatitis B virus infection” (priority 2013, dated 2016)
≈ marks a conversion by molar mass, not a printed value.

Columns and labels:
[1] = Lyophilisation solubility assay (Lysa); format: physicochemical; details: pH 6.5, aqueous buffer, thermodynamic from solid
In short: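 DMSO was evaporated from 10 mM stocks, and residues were taken up in 0.05 M phosphate buffer pH 6.5, stirred 1 h, shaken 2 h and left overnight. Filtrates were quantified by UV or HPLC-UV against a four-point calibration, in duplicate. Values are in μg/ml, with a lower-bound value when >80% dissolved.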

[2] = tested on: HBV replication in HepG2.2.15 cells; assay: Anti-HBV activity in vitro in HepG2.2.15 cells (extracellular HBV DNA by qPCR); format: cell-based; details: Hepatitis B virus, HepG2.2.15, Anti-HBV activity in HepG2.2.15 cells; read-out: EC50
In short: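 Constitutively HBV-producing HepG2.2.15 cells were seeded overnight at 37 °C, then treated with half-log serial dilutions of compound (0.5% DMSO final) for five days. Supernatant HBV DNA was extracted and quantified by qPCR; EC50 is the concentration inhibiting HBV replication by 50%.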

[3] = tested on: CYP3A4; details: human, 24 h
Protocol: Human cryopreserved hepatocytes (Life Technologies, Carlsbad, USA) were thawed and cultured in collagen I coated 96-well plates with a density of 52,000 cells/well. After attachment, medium was changed and cells were pre-cultured overnight in hepatocyte maintenance medium (HMM; Lonza, Switzerland).
Test compounds were dosed to the cells next morning at an indicated concentration (up to 10 μM) in HMM culture media containing gentamycin and a constant 0.1% DMSO. Similarly, dilutions of the positive inducer compounds omeprazole (prototypical inducer of human CYP1A2; final concentrations: 1 and 10 μM), phenobarbital (prototypical inducer of human CYP2B6; final concentrations: 100 and 1000 μM) and rifampicin (prototypical inducer of human CYP3A4; final concentrations: 1 and 10 μM) were prepared from 1000 fold DMSO stock solutions in HMM containing gentamycin. Medium change was then performed and cells were exposed for 24 hours to test compounds, positive inducer compounds, or vehicle (0.1% DMSO), respectively.
At the end of the compound exposure period, medium was removed and cells lysed using 100 μL/well MagNA Pure LC RNA isolation tissue lysis buffer (Roche Diagnostics AG, Rotkreuz, Switzerland). Plates were then sealed and frozen at −80° C. until further workup.
mRNA isolation was performed using the MagNA Pure 96 system (Roche Diagnostics AG, Rotkreuz, Switzerland) and the respective cellular RNA large volume kit (Roche Diagnostics AG, Rotkreuz, Switzerland) from thawed samples diluted 1:1 with PBS. The volume of the cell lysis and an elution volume of 100 μL were used. 20 μL of the resulting mRNA suspension was then used for reverse transcription using 20 μL of the transcript or first stand cDNA synthesis kit (Roche prime Supply, Mannheim, Germany). The resulting cDNA was diluted with 40 μL of H2O before using for qRT-PCR. qRT-PCR was performed by using the forward and the reverse primer, the corresponding UPL (all from Microsynth, Balgach, Switzerland) and the Taqman Fast advanced master mix (Applied Biosystems), on an ABI 7900 machine (Applied Biosystems).
qRT-PCR Ct-values for the respective P450s were put into relation to the Ct-value of RN18S1 (microsynth, Balgach, Switzerland) of the same sample. Doing so, a respective Δct-value was calculated. Using the average of all Δct-values for the vehicle control samples, a ΔΔct-value was calculated for each sample (ΔΔct-value(sample)=Δct-value(sample)−average of Δct-value of all vehicle controls). The fold induction of the respective sample was calculated as 2^(−ΔΔct). The individual fold induction values were then averaged per treatment condition (usually n=3 biological replicates).
Relative induction values to the respective positive inducer compound condition (10 μM omeprazole for CYP1A2; 1000 μM Phenobarbital for CYP2B6; 10 μM rifampicin for CYP3A4) were then calculated from the fold induction values as follows: Relative induction(%)=100×(T−V)/(P−V)
T: fold induction of test compound condition
P: fold induction of positive inducer compound
V: fold induction of vehicle controls

[4] = Human microsomal clearance assay; format: in vitro ADME; details: human, 1 μM, pH 7.4
In short: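 Liver microsomes (0.5 mg/mL protein) were incubated with 1 μM compound at 37 °C, pH 7.4 phosphate, with an NADPH-regenerating system. Samples at 0-30 min were quenched and measured by LC-MS/MS for parent loss. No-NADPH controls were included.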

[5] = Cytotoxicity (CCK-8 cell viability) and selectivity index; format: cell-based, human; details: human, HepDE19 cells; cytotoxicity, concentration resulting in death of 50% of host cells
In short: (§1)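 HepDE19 cells (5×10^3/well) were treated with compounds as for the EC50 runs and, after 5 days, given CCK-8 for 2 h at 37° C. Absorbance was read at OD450 and OD630, and CC50 was taken as the concentration killing 50% of host cells.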

[6] = tested on: HepDE19 cells; assay: as above; format: cell-based, human; details: CC50 value/EC50 value
In short: as §1

SMILES | solubility thermodynamic [1] | EC50 [2] | % of Positive control (10 μM Rifampicin) [3] | CLh [4] | CC50 at 5 days [5] | Selectivity index (CC50/EC50) [6]
COC(=O)C1=C(CN2C3COCC2CN(C)C3)NC(c2nccs2)=N[C@H]1c1ccc(F)cc1Cl [Example 12, (R)-4-(2-Chloro-4-fluoro-phenyl)-6-(7-methyl-3-oxa-7,9-diaza-bicyclo[3.3.1]non-9-ylmethyl)-2-thiazol-2-yl-1,4-dihydro-pyrimidine-5-carboxylic acid methyl ester] | > 597 µg/mL | 566 nM | 21% | – | – | –
COC(=O)C1=C(CN2C3COCC2c2cn[nH]c2C3)NC(c2nccs2)=N[C@H]1c1ccc(F)cc1Cl (stereo partly drawn) [Example 31, (R)-4-(2-Chloro-4-fluoro-phenyl)-6-(10-oxa-4,5,12-triaza-tricyclo[6.3.1.0*2,6*]dodeca-2(6),3-dien-12-ylmethyl)-2-thiazol-2-yl-1,4-dihydro-pyrimidine-5-carboxylic acid methyl ester] | – | 35 nM | 25% | – | – | –
COC(=O)C1=C(CN2CC3CC(C2)O3)NC(c2nccs2)=N[C@H]1c1ccc(F)cc1Cl [Example 38, (R)-4-(2-Chloro-4-fluoro-phenyl)-6-(6-oxa-3-aza-bicyclo[3.1.1]hept-3-ylmethyl)-2-thiazol-2-yl-1,4-dihydro-pyrimidine-5-carboxylic acid methyl ester] | – | 114 nM | 35% | – | – | –
COC(=O)C1=C(CN2C3COCC2C(NC(C)=O)C3)NC(c2nccs2)=N[C@H]1c1ccc(F)cc1Cl (stereo partly drawn) [Example 48, Methyl (4R)-6-[(6-acetamido-3-oxa-8-azabicyclo[3.2.1]octan-8-yl)methyl]-4-(2-chloro-4-fluoro-phenyl)-2-thiazol-2-yl-1,4-dihydropyrimidine-5-carboxylate] | 100 µg/mL (≈ 187 µM) | 19.4 nM | 17% | 4.8 mL/min/kg | – | –
COC(=O)C1=C(CN2[C@H]3COC[C@@H]2[C@H](CC(=O)O)C3)NC(c2nccs2)=N[C@H]1c1ccc(F)cc1Br [Example 64, 2-[(1R,5S,6S)-8-[[(4R)-4-(2-bromo-4-fluoro-phenyl)-5-methoxycarbonyl-2-thiazol-2-yl-1,4-dihydropyrimidin-6-yl]methyl]-3-oxa-8-azabicyclo[3.2.1]octan-6-yl]acetic acid] | 660 µg/mL (≈ 1140 µM) | 16.6 nM | – | 2.6 mL/min/kg | > 100000 nM | >6024
CCOC(=O)C1=C(CN2[C@@H]3COC[C@H]2C[C@@H](CC(=O)O)C3)NC(c2nccs2)=N[C@H]1c1cccc(F)c1Cl [Example 65, Endo-2-[(1S,5R)-9-[[(4R)-4-(2-chloro-3-fluoro-phenyl)-5-ethoxycarbonyl-2-thiazol-2-yl-1,4-dihydropyrimidin-6-yl]methyl]-3-oxa-9-azabicyclo[3.3.1]nonan-7-yl]acetic acid] | 375 µg/mL (≈ 666 µM) | 11.8 nM | – | 2.8 mL/min/kg | 71000 nM | 5980
CCOC(=O)C1=C(CN2[C@@H]3COC[C@H]2C[C@H](CC(=O)O)C3)NC(c2nccs2)=N[C@H]1c1ccc(F)cc1Br [Example 67, Exo-2-[(1S,5R)-9-[[(4R)-4-(2-bromo-4-fluoro-phenyl)-5-ethoxycarbonyl-2-thiazol-2-yl-1,4-dihydropyrimidin-6-yl]methyl]-3-oxa-9-azabicyclo[3.3.1]nonan-7-yl]acetic acid] | 319 µg/mL (≈ 525 µM) | 4 nM | – | 2.9 mL/min/kg | > 100000 nM | >25000
CCOC(=O)C1=C(CN2[C@@H]3COC[C@H]2C[C@H](CC(=O)O)C3)NC(c2nccs2)=N[C@H]1c1ccccc1Cl [Example 72, Exo-2-[(1S,5R)-9-[[(4R)-4-(2-chlorophenyl)-5-ethoxycarbonyl-2-thiazol-2-yl-1,4-dihydropyrimidin-6-yl]methyl]-3-oxa-9-azabicyclo[3.3.1]nonan-7-yl]acetic acid] | 640 µg/mL (≈ 1170 µM) | 13.2 nM | – | 2.8 mL/min/kg | > 100000 nM | >7576
COC(=O)C1=C(CN2[C@@H]3COC[C@H]2C[C@H](CC(=O)O)C3)NC(c2nccs2)=N[C@H]1c1cccc(F)c1Br [Example 74, Exo-2-[(1S,5R)-9-[[(4R)-4-(2-bromo-3-fluoro-phenyl)-5-methoxycarbonyl-2-thiazol-2-yl-1,4-dihydropyrimidin-6-yl]methyl]-3-oxa-9-azabicyclo[3.3.1]nonan-7-yl]acetic acid] | > 621 µg/mL | 10.9 nM | – | 0.5 mL/min/kg | > 100000 nM | >9174
CCOC(=O)C1=C(CN2[C@@H]3COC[C@H]2C[C@H](CC(=O)O)C3)NC(c2nccs2)=N[C@H]1c1ccccc1Br [Example 77, Exo-2-[(1S,5R)-9-[[(4R)-4-(2-bromophenyl)-5-ethoxycarbonyl-2-thiazol-2-yl-1,4-dihydropyrimidin-6-yl]methyl]-3-oxa-9-azabicyclo[3.3.1]nonan-7-yl]acetic acid] | 491 µg/mL (≈ 833 µM) | 14 nM | – | 1.3 mL/min/kg | > 100000 nM | >7143
CCOC(=O)C1=C(CN2[C@@H]3COC[C@H]2C[C@H](CC(=O)O)C3)NC(c2nccs2)=N[C@H]1c1ccc(F)c(F)c1C [Example 78, Exo-2-[(1S,5R)-9-[[(4S)-4-(3,4-difluoro-2-methyl-phenyl)-5-ethoxycarbonyl-2-thiazol-2-yl-1,4-dihydropyrimidin-6-yl]methyl]-3-oxa-9-azabicyclo[3.3.1]nonan-7-yl]acetic acid] | 111 µg/mL (≈ 198 µM) | 2 nM | – | 1.9 mL/min/kg | 73000 nM | 36515
COC(=O)C1=C(CN2[C@@H]3CC[C@@]2(C(=O)O)COC3)NC(c2nccs2)=N[C@H]1c1ccc(F)cc1Cl [Example 82, (1R,5S)-8-[[(4R)-4-(2-chloro-4-fluoro-phenyl)-5-methoxycarbonyl-2-thiazol-2-yl-1,4-dihydropyrimidin-6-yl]methyl]-3-oxa-8-azabicyclo[3.2.1]octane-5-carboxylic acid] | > 628 µg/mL | 13.1 nM | – | 0 mL/min/kg | > 100000 nM | >7634
CCOC(=O)C1=C(CN2C3CCC2(C(=O)O)COC3)NC(c2nccs2)=N[C@H]1c1cccc(F)c1Cl (stereo partly drawn) [Example 83, 8-[[(4R)-4-(2-chloro-3-fluoro-phenyl)-5-ethoxycarbonyl-2-thiazol-2-yl-1,4-dihydropyrimidin-6-yl]methyl]-3-oxa-8-azabicyclo[3.2.1]octane-5-carboxylic acid] | 564 µg/mL (≈ 1050 µM) | 8.6 nM | – | 1.6 mL/min/kg | 65000 nM | 7558
COC(=O)C1=C(CN2[C@@H]3CC[C@@]2(C(=O)O)COC3)NC(c2nccs2)=N[C@H]1c1ccc(F)c(F)c1C [Example 85, (1R,5S)-8-[[(4S)-4-(3,4-difluoro-2-methyl-phenyl)-5-methoxycarbonyl-2-thiazol-2-yl-1,4-dihydropyrimidin-6-yl]methyl]-3-oxa-8-azabicyclo[3.2.1]octane-5-carboxylic acid] | > 639 µg/mL | 6.6 nM | – | 1.3 mL/min/kg | > 100000 nM | >15152
COC(=O)C1=C(CN2[C@@H]3C[C@@H](CC(=O)O)C[C@H]2C(F)(F)C3)NC(c2nccs2)=N[C@H]1c1ccc(F)cc1Cl [Example 109, 2-[(1R,3R,5S)-8-[[(4R)-4-(2-chloro-4-fluoro-phenyl)-5-methoxycarbonyl-2-thiazol-2-yl-1,4-dihydropyrimidin-6-yl]methyl]-6,6-difluoro-8-azabicyclo[3.2.1]octan-3-yl]acetic acid] | 107 µg/mL (≈ 188 µM) | 1.7 nM | – | 7.2 mL/min/kg | > 100000 nM | >58824
CCOC(=O)C1=C(CN2C3COCC2C(F)(F)[C@H](CC(=O)O)C3)NC(c2nccs2)=N[C@H]1c1cccc(F)c1Cl (stereo partly drawn) [Example 130, 2-[(7S)-9-[[(4R)-4-(2-chloro-3-fluoro-phenyl)-5-ethoxycarbonyl-2-thiazol-2-yl-1,4-dihydropyrimidin-6-yl]methyl]-6,6-difluoro-3-oxa-9-azabicyclo[3.3.1]nonan-7-yl]acetic acid] | 219 µg/mL (≈ 366 µM) | 6.4 nM | – | 5.0 mL/min/kg | 69000 nM | 10830
